Data set [1] in a line: hPDE3 assay ([3H]cAMP scintillation proximity assay). The data set is classed as biochemical, human. The settings on record: Table 3-C; title says PDE3, head says c-Met Biochem IC50 [nM]. Background: In a scintillation proximity assay essentially only radioactivity close to the scintillant gives light.
Data set [2] deals with c-Met receptor tyrosine kinase, GST-c-MET (969-1390) (Homo sapiens (Human), UniProt P08581). The settings on record: read-out: c-Met Biochem IC50.
Experimental: A number of compounds of the present invention were assayed in an antibody based kinase phosphorylation assay as follows.
The EPK kinase assay for c-Met receptor tyrosine kinase was developed, using the purified recombinant GST-fusion protein, containing the cytoplasmic domain of the enzyme.
The kinase assay is based on the LanthaScreen™ technology.
The kinase reactions were performed in 384 well microtiter plates in a total reaction volume of 10.05 μL. The assay plates were prepared with 0.05 μL per well of test compound in the appropriate test concentration, as described under “preparation of compound dilutions”. The reactions were started by combining 5 μL of ATP solution with 5 μL of enzyme-substrate mix (consisting of kinase and substrate). […] Subsequently 5 μL of detection mix (50 mM Tris/HCl, 2 mM DTT, 0.05% Tween20, 20 μM sodium orthovanadate, 1% BSA, 1 nM Tb-PY20 antibody) were added to the stopped reactions. After 45 minutes incubation in dark at room temperature, the plates were measured in a Perkinelmer Envision fluorescence reader.
For another data set, the system named is GTL16 cells. Description: GTL16 cell viability assay (CellTiter Glo). The settings on record: read-out: GTL-16 Proliferation IC50. Background: In ATP-based viability assays light output follows the ATP content of the culture.
The next data set deals with human platelet PDE3 (Homo sapiens (Human), UniProt Q14432). Description: hPDE3 assay ([3H]cAMP scintillation proximity assay). Format: biochemical. The conditions noted are these: human platelet PDE3. An excerpt: Here, compounds of formula I were screened for their ability to inhibit human PDE3 in the assay based on Amersham Pharmacia Biotech's Phosphodiesterase (PDE) [^3H]-adenosine 3′,5′ cyclic phosphate ([^3H]cAMP) Scintillation Proximity Assay (SPA). The assay is based on the hydrolysis of [^3H]cAMP, by human platelet PDE3, to [^3H]5′-adenoside monophosphate (5′-AMP). The [^3H]5′-AMP is specifically captured by yttrium silicate SPA beads in the presence of zinc sulphate.
• Optiplate and TopSeal-S (Can berra Packard) • Human platelet PDE3 (partially purified from human platelets)—a titration curve of human platelet PDE3 activity was performed to optimise the concentration of hPDE3 required in the assay. • Yttrium silicate SPA beads and [^3H]cAMP (Amersham) • Tris-Base, magnesium chloride, ethylenediaminetetraacetic acid (di-sodium salt), bovine serum albumin BSA and cAMP (Sigma) Solutions and Buffers: • Assay buffer: 7.56 g Tris-Base was dissolved in approximately 800 mL distilled water and the pH adjusted to 7.5 with 1 M hydrochloric acid. 10.3 mL 1 M magnesium chloride and 4.25 mL 0.5 M EDTA were added. The solution was made to 1 L with distilled water and stored at 4° C. On day of use 18 mL of the above solution was removed and 2 mL 5 mg/ml BSA were added thereto. • Enzyme buffer: 10 mM Tris-HCl at pH 7.5, 1 mM EDTA • Yttrium silicate SPA beads: 1 vial was reconstituted in 28 mL distilled water and stored at 4° C. Assay
The assay was performed in a final volume of 100 μL per well of an Optiplate (Canberra Packard). A 10 μL aliquot of the test compound dissolved in DMSO/distilled water was placed in a well of an Optiplate plate, followed by the addition of 80 μL ‘Assay mix’ (5.5 μL [^3H]cAMP and 88 μL “cold” cAMP were diluted to 8.8 mL using assay buffer). The reaction was started by adding 10 μL hPDE3 (50 μL stock hPDE3 solution was diluted 50 fold to 2.5 mL using enzyme buffer). The plate was incubated at room temperature for 30 min, the reaction was then terminated by the addition of 50 μL Yttrium silicate SPA beads (pre-warmed to room temperature) to all wells. […] The plate was sealed using TopSeal-S according to the manufacturer's instructions and counted using a Packard TopCount, each well being counted for 1 min. IC50 values were determined using non-linear regression.

The conditions of data set [3]: cited from earlier work.
The conditions of data set [4]: patients treated with SGX523; cited from earlier work.
The conditions of data set [5]: monkey liver S-9; cited from earlier work.
The conditions of data set [6]: human liver S-9; cited from earlier work.
For data set [7] the following is noted: dog S-9 incubations; cited from earlier work.
Setting [8] is: 2 μM ATP, 60 minutes at room temperature.

Counter-ions that a name gives are not always drawn. Like-named read-outs stand apart in the source and are kept apart here.

This is an account of results in US9062045B2, “Triazolopyridine compounds” (Novartis AG, priority 2012, dated 2015).

Sequence of human platelet PDE3 (Q14432 whole entry): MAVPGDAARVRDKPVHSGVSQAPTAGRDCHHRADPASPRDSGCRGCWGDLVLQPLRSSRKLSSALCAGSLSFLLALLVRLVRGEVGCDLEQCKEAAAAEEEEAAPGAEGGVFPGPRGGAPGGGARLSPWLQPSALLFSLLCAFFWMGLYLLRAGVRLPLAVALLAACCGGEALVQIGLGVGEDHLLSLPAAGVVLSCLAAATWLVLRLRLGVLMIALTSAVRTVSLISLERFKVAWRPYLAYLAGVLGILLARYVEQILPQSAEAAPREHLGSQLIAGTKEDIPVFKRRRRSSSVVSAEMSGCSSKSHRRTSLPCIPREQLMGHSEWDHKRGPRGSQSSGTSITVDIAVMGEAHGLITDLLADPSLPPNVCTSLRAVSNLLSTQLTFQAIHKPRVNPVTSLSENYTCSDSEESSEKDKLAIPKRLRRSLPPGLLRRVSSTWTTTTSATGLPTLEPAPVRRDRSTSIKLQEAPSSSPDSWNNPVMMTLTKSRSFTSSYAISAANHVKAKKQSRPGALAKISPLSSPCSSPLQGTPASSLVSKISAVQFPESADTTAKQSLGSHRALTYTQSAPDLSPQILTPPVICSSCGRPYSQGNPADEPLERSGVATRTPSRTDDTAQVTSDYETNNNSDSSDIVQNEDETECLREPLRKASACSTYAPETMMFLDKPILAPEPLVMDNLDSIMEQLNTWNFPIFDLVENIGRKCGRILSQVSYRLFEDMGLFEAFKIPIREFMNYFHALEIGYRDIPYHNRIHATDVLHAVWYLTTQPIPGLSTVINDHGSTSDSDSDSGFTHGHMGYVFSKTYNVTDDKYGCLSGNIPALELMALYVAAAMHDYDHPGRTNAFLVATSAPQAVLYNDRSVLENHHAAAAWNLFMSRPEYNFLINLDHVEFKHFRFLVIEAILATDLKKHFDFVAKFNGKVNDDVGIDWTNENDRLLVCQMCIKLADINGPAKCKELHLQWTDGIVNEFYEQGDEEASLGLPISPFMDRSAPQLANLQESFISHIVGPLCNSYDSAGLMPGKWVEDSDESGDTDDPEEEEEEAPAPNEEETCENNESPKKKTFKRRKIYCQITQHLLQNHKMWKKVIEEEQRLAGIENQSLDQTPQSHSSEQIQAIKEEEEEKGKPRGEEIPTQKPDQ
Sequence of c-Met receptor tyrosine kinase, GST-c-MET (969-1390) (P08581 969-1390): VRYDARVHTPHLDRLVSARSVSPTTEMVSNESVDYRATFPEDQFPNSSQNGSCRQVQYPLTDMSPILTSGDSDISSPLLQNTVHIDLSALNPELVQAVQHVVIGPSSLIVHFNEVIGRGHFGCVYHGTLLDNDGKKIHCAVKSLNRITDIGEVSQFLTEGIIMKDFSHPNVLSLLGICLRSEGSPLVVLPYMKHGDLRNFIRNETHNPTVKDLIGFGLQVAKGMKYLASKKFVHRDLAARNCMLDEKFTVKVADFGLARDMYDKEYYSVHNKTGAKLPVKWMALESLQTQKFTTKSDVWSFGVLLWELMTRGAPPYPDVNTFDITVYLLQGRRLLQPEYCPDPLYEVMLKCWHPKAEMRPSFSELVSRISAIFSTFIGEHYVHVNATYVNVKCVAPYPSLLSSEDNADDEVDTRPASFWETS
Experimental for GTL16 cells: GTL16 Cell Viability Assay:
GTL16 expresses high level of c-Met receptor tyrosine kinase due to the gene amplification.
GTL16 cells were seeded in DMEM medium with 10% FBS and 1% Pene. & Strep. at 5000 cells/well/90 μL in 96 well plate and incubated overnight for attachment at 37° C. in 5% CO2 incubator. 10-fold serials dilutions of compounds were added to the cell as 10 μL/well. The final assay volume was 100 μl/well. The assay plates were incubated at 37° C. in 5% CO2 incubator for 24 hours. […] The chemiluminescent light unit was read in Envision from Perkin Elmer. All the tests were run at triplicates. The IC50 was calculated using Spotfire software.

In the case of `Cn1cc(-c2cnc3ccc(Sc4nnc5ccc(-c6cnn(CCO)c6)cn45)cc3c2)cn1` [Reference Example No. 73, 2-(4-(3-(3-(1-methyl-1H-pyrazol-4-yl)quinolin-6-ylthio)-[1,2,4]triazolo[4,3-a]pyridin-6-yl)-1H-pyrazol-1-yl)ethanol, reference compound], the IC50 in data set [1] amounted to 7 nM; in data set [2], 5 nM.

As to `Cn1cc(-c2ccc3nnc(C(F)(F)c4ccc5ncccc5c4)n3n2)cn1` [Comparator No. 1 (JNJ-38877605), 6-{Difluoro-[6-(1-methyl-1H-pyrazol-4-yl)-[1,2,4]triazolo[4,3-b]pyridazin-3-yl]-methyl}-quinoline, reference compound], the IC50 in data set [1] was 4 nM; in the data set with GTL16 cells (GTL16 cells, 24 hours), under 10 nM; in data set [2] (setting [8]) it was 3 nM.

As for `Cn1cc(-c2ccc3nnc(Sc4ccc5ncc(N6CCN(C7CCCCC7)CC6)cc5c4)n3c2)cn1` [Example 32, 3-(4-Cyclohexylpiperazin-1-yl)-6-(6-(1-methyl-1H-pyrazol-4-yl)-[1,2,4]triazolo[4,3-a]pyridin-3-ylthio)quinoline], the IC50 came to 26000 nM at human platelet PDE3; 4 nM in the data set on GTL16 cells (GTL16 cells, 24 hours); […] in [2] (setting [8]).

As for `Cn1cc(-c2cc(F)c3nnc(Sc4ccc5ncc(N6CCC(N7CCCCC7)CC6)cc5c4)n3c2)cn1` [Example 31, 3-(1,4′-Bipiperidin-1′-yl)-6-(8-fluoro-6-(1-methyl-1H-pyrazol-4-yl)-[1,2,4]triazolo[4,3-a]pyridin-3-ylthio)quinoline], the IC50 against human platelet PDE3 was 30000 nM; in the data set on GTL16 cells (GTL16 cells, 24 hours), 0.4 nM; in [2] (setting [8]), 3 nM.

`Cn1cc(-c2ccc3nnc(Sc4ccc5ncc(N6CCC(N7CCCCC7)CC6)cc5c4)n3c2)cn1` [Example 30, 3-(1,4′-Bipiperidin-1′-yl)-6-(6-(1-methyl-1H-pyrazol-4-yl)-[1,2,4]triazolo[4,3-a]pyridin-3-ylthio)quinoline]: the IC50 on human platelet PDE3 was determined as 25000 nM; in the data set on GTL16 cells (GTL16 cells, 24 hours) it was […]; in data set [2] (setting [8]) it was […].

With `Cn1cc(-c2ccc3nnc(Sc4ccc5ncc(N6CCN(c7ccccc7)CC6)cc5c4)n3c2)cn1` [Example 34, 6-(6-(1-Methyl-1H-pyrazol-4-yl)-[1,2,4]triazolo[4,3-a]pyridin-3-ylthio)-3-(4-phenylpiperazin-1-yl)quinoline], the IC50 on human platelet PDE3 was 30000 nM; with GTL16 cells (GTL16 cells, 24 hours) it was 1 nM; in data set [2] (setting [8]), 45 nM.

`C/C(=N\OCCO)c1ccc2nnc(Cc3ccc4ncc(N5CCN(C)CC5)cc4c3)n2n1` [Comparator No. 2, 1-{3-[3-(4-Methyl-piperazin-1-yl)-quinolin-6-ylmethyl]-[1,2,4]triazolo[4,3-b]pyridazin-6-yl}-ethanone O-(2-hydroxy-ethyl)-oxime] returned an IC50 in data set [1] of 4 nM.

Turning to `c1cc2ncc(N3CCOCC3)cc2cc1Sc1nnc2ccc(-c3cn[nH]c3)cn12` [Example 57, 4-(6-(6-(1H-pyrazol-4-yl)-[1,2,4]triazolo[4,3-a]pyridin-3-ylthio)quinolin-3-yl)morpholine], the IC50 was 10000 nM on human platelet PDE3; 10 nM in the data set on GTL16 cells (GTL16 cells, 24 hours); […] in data set [2].

Take `Cn1cc(-c2ccc3nnc(Sc4ccc5[nH]c(=O)ccc5c4)n3n2)cn1` [2-quinolinone-SGX523 metabolite, 6-(6-(1-methyl-1H-pyrazol-4-yl)-[1,2,4]triazolo[4,3-b]pyridazin-3-ylthio)quinolin-2(1H)-one]: the “solubility compared with SGX523” value in [3] was “markedly less-soluble”.

For the compound `Fc1cc(-c2cn[nH]c2)cn2c(Sc3ccc4ncc(N5CCOCC5)cc4c3)nnc12` [Example 58, 4-(6-(8-Fluoro-6-(1H-pyrazol-4-yl)-[1,2,4]triazolo[4,3-a]pyridin-3-ylthio)quinolin-3-yl)morpholine], the IC50 against human platelet PDE3 stood at 13000 nM; with GTL16 cells (GTL16 cells, 24 hours), 8 nM; in data set [2] (setting [8]), […].

`Cn1cc(-c2ccc3nnc(Sc4ccc5ncccc5c4)n3c2)cn1` [Reference Example No. 63, 6-(6-(1-methyl-1H-pyrazol-4-yl)-[1,2,4]triazolo[4,3-a]pyridin-3-ylthio)quinoline] showed an IC50 in data set [1] of 15 nM.

For the compound `Cn1cc(-c2cc(F)c3nnc(Sc4ccc5ncc(N)cc5c4)n3c2)cn1` [Example 55, 6-(8-Fluoro-6-(1-methyl-1H-pyrazol-4-yl)-[1,2,4]triazolo[4,3-a]pyridin-3-ylthio)quinolin-3-amine hydrochloride], the IC50 against human platelet PDE3 was over 30000 nM; with GTL16 cells, 1 nM; in [2] it was […].

Turning to `Cn1cc(-c2ccc3nnc(Sc4ccc5ncccc5c4)n3n2)cn1` [Comparator No. 4 (SGX523), 6-[6-(1-Methyl-1H-pyrazol-4-yl)-[1,2,4]triazolo[4,3-b]pyridazin-3-ylsulfanyl]-quinoline], the “renal function of patients” value in data set [4] is reported as “compromised renal function”. Moreover, the entries for the “generation of metabolite M11” value in data set [5], in [6] and in data set [7] were “generated”, “generated” and “absent”, respectively.

With `Cn1cc(-c2ccc3nnc(Sc4ccc5ncc(N)cc5c4)n3c2)cn1` [Example 56, 6-(6-(1-Methyl-1H-pyrazol-4-yl)-[1,2,4]triazolo[4,3-a]pyridin-3-ylthio)quinolin-3-amine hydrochloride], the IC50 is 17000 nM against human platelet PDE3, 33 nM with GTL16 cells and 13 nM in data set [2].
